This is an account of results in patent US20250346581A1, “PROCESS FOR SYNTHESIS OF GALBULIMIMA ALKALOID 18 AND COMPOUNDS USEFUL AS OPIOID RECEPTOR ANTAGONISTS AND AGONISTS” (The Scripps Research Institute, priority 2022, published 2025).

The target of experiment [1] is T1, KOR (Homo sapiens, UniProt P41145). In words: KOR cAMP inhibition screening, antagonist mode vs. 100 nM U69,593. The conditions noted are these: Antagonist vs. 100 nM U69,593 IC50 (nM).
The target in experiment [2] is T1, KOR. In words: KOR cAMP inhibition screening, agonist mode.
The target in experiment [3] is T2, kappa-opioid receptors (KOR) (Homo sapiens, UniProt P41145).
T2 construct: NIMH Psychoactive Drug Screening Program (screening service)
The experiment is described as follows: NIMH PDSP radioligand displacement, [3H]U-69593. It is filed as binding. The settings on record: for displacement of [3H]U-69593 from KOR: 10 μM.

The next experiment concerns the target MOR (Homo sapiens, UniProt P35372). The experiment is described as follows: TANGO assay MOR. It is filed as cell-based.
Experiment [4] has as its target T1, KOR. In words: TANGO assay KOR. It is filed as cell-based.
In a further experiment the test system is >40 common drug targets. The experiment is described as follows: NIMH PDSP binding screen of common drug targets. The conditions noted are these: 10 μM.
Experiment [5] addresses T3, mu-opioid receptors (MOR) (Homo sapiens, UniProt P35372).
T3 construct: NIMH Psychoactive Drug Screening Program (screening service)
The experiment is described as follows: NIMH PDSP radioligand displacement, [3H]DAMGO. It is filed as binding. The settings on record: 10 μM. For orientation: Loss of bound radioactivity is the signal in a displacement assay; it reports binding, not function.

Another experiment addresses delta-opioid receptors (Homo sapiens, UniProt P41143). In words: Follow-up assay delta-opioid receptor. It is filed as cell-based.
In experiment [6] the target is nociceptin opioid receptors (Homo sapiens, UniProt P41146). In words: Follow-up assay nociceptin opioid receptor. It is filed as cell-based.
The subject of another experiment is Mas-related GPCRs. The experiment is described as follows: Follow-up assay Mas-related GPCRs. It is filed as cell-based.
For another experiment, the system named is M1-5. In words: Muscarinic receptor binding (FIG. 3). The source says:
Thus, the topology changes that differentiate the two subclasses also differentiate target selectivity.

For experiment [7], the system named is mouse. The settings on record: 5 mg/kg; cited from earlier work.
Experiment [8] concerns mouse. The conditions noted are these: 5 mg/kg; cited from earlier work. The source holds these as a separate data set.
A further experiment relates to cats. The settings on record: 2.5 mg/kg, i.v. administration; cited from earlier work.
A further experiment concerns rabbit intestine. The settings on record: 0.1 mg/L, furmethide-induced spasm; cited from earlier work.
The target of experiment [9] is T1, KOR.
Experiment [10] has as its system mammals. The settings on record: cited from earlier work.
In experiment [11] the test system is mammals. The settings on record: in vivo; cited from earlier work.
The mark [12] stands for this setting: read-out: Agonist Emax (% U69,593).
Where [13] appears, read: read-out: Agonist Emax (% U69,593), KOR cAMP, agonist mode.

Entries after “also recorded” stand apart in the source; their conditions may differ. Like-named read-outs stand apart in the source and are kept apart here. Marks after values point to notes of the source that are not given here.

T2 sequence (P41145 whole entry): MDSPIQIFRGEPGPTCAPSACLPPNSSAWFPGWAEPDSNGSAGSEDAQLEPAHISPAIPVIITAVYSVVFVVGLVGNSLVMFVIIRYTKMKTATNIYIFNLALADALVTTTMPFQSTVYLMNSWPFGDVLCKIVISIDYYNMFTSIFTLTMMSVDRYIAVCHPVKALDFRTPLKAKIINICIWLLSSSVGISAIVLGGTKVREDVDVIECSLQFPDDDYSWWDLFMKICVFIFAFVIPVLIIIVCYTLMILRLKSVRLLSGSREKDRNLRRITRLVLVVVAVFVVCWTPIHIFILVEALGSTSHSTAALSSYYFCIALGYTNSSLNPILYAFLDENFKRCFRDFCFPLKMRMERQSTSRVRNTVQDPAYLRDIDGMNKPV
T1 sequence (P41145 whole entry): as above
Chain of MOR (P35372 whole entry): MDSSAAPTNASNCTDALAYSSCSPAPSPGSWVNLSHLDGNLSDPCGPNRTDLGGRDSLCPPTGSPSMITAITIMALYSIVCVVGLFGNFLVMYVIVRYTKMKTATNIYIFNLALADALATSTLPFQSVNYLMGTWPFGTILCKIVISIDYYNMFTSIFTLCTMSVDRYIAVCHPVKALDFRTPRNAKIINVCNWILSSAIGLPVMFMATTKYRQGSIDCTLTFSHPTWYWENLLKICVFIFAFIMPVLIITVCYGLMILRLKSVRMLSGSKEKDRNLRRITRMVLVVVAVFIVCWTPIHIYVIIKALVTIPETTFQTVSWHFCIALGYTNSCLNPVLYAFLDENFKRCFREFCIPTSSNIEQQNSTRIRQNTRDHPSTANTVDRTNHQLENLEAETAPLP
T3 sequence (P35372 whole entry): as above
Chain of nociceptin opioid receptors (P41146 whole entry): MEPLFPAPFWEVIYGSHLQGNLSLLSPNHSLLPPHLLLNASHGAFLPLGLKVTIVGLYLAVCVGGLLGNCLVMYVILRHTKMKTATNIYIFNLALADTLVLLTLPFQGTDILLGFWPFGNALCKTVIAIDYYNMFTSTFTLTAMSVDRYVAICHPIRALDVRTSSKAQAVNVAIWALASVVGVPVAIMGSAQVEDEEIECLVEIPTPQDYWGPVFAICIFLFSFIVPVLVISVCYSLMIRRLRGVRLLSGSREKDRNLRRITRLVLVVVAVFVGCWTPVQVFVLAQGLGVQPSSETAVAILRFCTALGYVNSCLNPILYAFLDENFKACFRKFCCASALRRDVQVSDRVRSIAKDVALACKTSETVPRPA
Chain of delta-opioid receptors (P41143 whole entry): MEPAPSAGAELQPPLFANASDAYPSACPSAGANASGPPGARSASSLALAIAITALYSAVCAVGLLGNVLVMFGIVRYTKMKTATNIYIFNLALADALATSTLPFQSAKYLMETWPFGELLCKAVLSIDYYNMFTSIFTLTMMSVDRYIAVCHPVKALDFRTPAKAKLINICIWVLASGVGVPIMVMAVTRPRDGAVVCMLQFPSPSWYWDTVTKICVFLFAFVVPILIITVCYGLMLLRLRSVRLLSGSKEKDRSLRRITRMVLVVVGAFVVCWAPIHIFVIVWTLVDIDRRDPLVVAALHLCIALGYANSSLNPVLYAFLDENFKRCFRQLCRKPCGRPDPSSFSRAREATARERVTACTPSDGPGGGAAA

The IC50 is the point on the concentration scale where inhibition reaches its midpoint. Higher therefore signals a need for much substance. As to `CC1CCCC(C2CC3C4CCCCC45C=C(I)C4C2(C)OC345)N1C` (stereo not drawn), half-maximal inhibition at KOR [1] (IC50) was put at 830 nM. In other words, the sub-micromolar range.

In general, Emax refers to the size of the effect at its maximum, as opposed to the concentration needed. Turning to `C#CCOC(=O)C1=CC23CCCCC2C2CC(C4CCCC(C)N4)C4(C)OC23C14` (stereo not drawn), at KOR [1], the IC50 was 556 nM. The Emax on KOR [2] (setting [12]) was 5%.

`CCOC(=O)C1=CC23CCCCC2C2CC(C4CCCC(C)N4C)C4(C)OC23C14` (stereo not drawn) displayed an IC50 against KOR [1] of 3390 nM. Also, on KOR [2] (setting [12]), the Emax worked out at 15%.

For `CC1CCCC(C2CC3C4CCCCC45C=C(C#N)C4C2(C)OC345)N1C` (stereo not drawn), on KOR [2] (setting [13]), the Emax came out at 8%.

At KOR [1], `CC1CCCC([C@H]2C[C@H]3C4CCCCC45C=C(I)[C@H]4C2(C)OC345)N1C` (stereo partly drawn) displayed a half-inhibitory concentration (IC50) of 1400 nM. This lies in the single-digit micromolar range.

As for `C=CCN1C(C)CCCC1C1CC2C3CCCCC34C=C(C(=O)OC)C3C1(C)OC234` (stereo not drawn), on KOR [2] (setting [13]), the Emax was 2%.

Turning to `COC(=O)C1=CC23CCCCC2C2CC(C4CCCC(C)N4C(C)=O)C4(C)OC23C14` (stereo not drawn), the IC50 against KOR [1] was over 10000 nM. Also, the Emax on KOR [2] (setting [12]) worked out at 10%.

Molecule `CC1CCCC(C2CC3C4CCCCC45C=C(CO)C4C2(C)OC345)N1C` (stereo not drawn) displayed an IC50 at KOR [1] of 116 nM. Also, the Emax at KOR [2] (setting [12]) came to 12%.

As to `COCC1=CC23CCCCC2C2CC(C4CCCC(C)N4C)C4(C)OC23C14` (stereo not drawn), at KOR [1], half-maximal inhibition (IC50) required 3220 nM. Besides, the Emax on KOR [2] (setting [12]) was 14%.

In the case of `CC(=O)C1=CC23CCCCC2C2CC(C4CCCC(C)N4C)C4(C)OC23C14` (stereo not drawn), the Emax on KOR [2] (setting [13]) worked out at 12%.

In the case of `COCC(=O)C1=CC23CCCCC2C2CC(C4CCCC(C)N4C)C4(C)OC23C14` (stereo not drawn), the Emax at KOR [2] (setting [13]) was 10%.

Take `CC1CCCC(C2CC3C4CCCCC45C=C(C4=NCCO4)C4C2(C)OC345)N1C` (stereo not drawn): the Emax on KOR [2] (setting [13]) came to 4%.

For the molecule `COC1CC23CCCCC2C2CC(c4cccc(C)n4)C4(C)OC23C14` (stereo not drawn), the Emax on KOR [2] (setting [13]) was 5%.

As a reminder, the EC50 is the midpoint of the concentration-response curve. Read a high EC50 as weaker potency. As for `COC(=O)C1=CC23CCCCC2[C@@H]2C[C@H](c4cccc(C)c4)C4(C)OC23[C@@H]14` (stereo partly drawn), on KOR [2], the “Agonist Emax (% U69,593)” value is given as 60* % U69,593 and it took 1050 nM to reach a half-maximal effect (EC50).

On KOR [1], `COC(=O)C1=CC23CCCCC2[C@@H]2C[C@H](c4cccnc4)C4(C)OC23[C@@H]14` (stereo partly drawn) displayed an IC50 of over 10000 nM. Besides, the Emax on KOR [2] (setting [12]) was 19%.

Usually Ki stands for a dissociation constant, usually derived from enzyme kinetics or from competition with a known ligand. A high value points to lower affinity. For the molecule `COC(=O)C1=CC23CCCCC2[C@H]2C[C@@H](C4CCCC(C)N4)C(C)(O3)[C@@H]12` (single isomer, unassigned) [ent-GB18], in experiment [3], the “displacement of [3H]U-69593 from KOR” value amounted to 56%. Besides, in experiment [3] ([3H]U-69593 displacement), the Ki is 1100 nM.

With `COC(=O)C1=CC23CCCCC2[C@@H]2C[C@H](C4CCCC(C)N4)C(C)(O3)[C@H]12` (single isomer, unassigned) [nat-GB18], in experiment [3], the “displacement of [3H]U-69593 from KOR” value was determined as 87%. Moreover, the IC50 at MOR (TANGO, antagonist) came to 12 nM; against KOR [4] (TANGO, antagonist), 10 nM. Moreover, the “binding to >40 common drug targets” value in the experiment with >40 common drug targets is on record as “low or statistically-insignificant”. Further, the “displacement of [3H]DAMGO from MOR” value in experiment [5] was 85%. Besides, the “ligation of delta-opioid receptors” value on delta-opioid receptors is on record as “not strongly ligated”. In addition, the “ligation of nociceptin opioid receptors” value in experiment [6] is on record as “not strongly ligated”. Also, the “ligation of Mas-related GPCRs” value in the experiment on Mas-related GPCRs is reported as “not strongly ligated”.

Turning to `COC(=O)C1=C[C@@]23CCCC[C@H]2[C@@H]2C[C@H]([C@H]4CCC[C@@H](C)N4)C(C)(O3)[C@H]12` [GB18, methyl (2R,3aS,5aR,9aS,9bS)-3-methyl-2-((2R,6R)-6-methylpiperidin-2-yl)-1,2,3,3a,6,7,8,9,9a,9b-decahydro-3,5a-epoxycyclopenta[a]naphthalene-4-carboxylate], the “antagonism of MOR” value at MOR (FIG. 3) is reported as “high potency”. Besides, the “antagonism of KOR” value on KOR [4] (FIG. 3) is on record as “high potency”. Besides, the “binding to M1-5” value in the experiment with M1-5 is “does not bind”. Also, the “effect on pain threshold” value in the experiment with mouse [7] is “without effect; also recorded: no effect”. Besides, the “inhibition of mouse preening” value in the experiment with mouse [8] is “inhibition of preening; also recorded: inhibited mouse preening”.

With `COC(=O)C1=C2C3(O)CC4CC5C3CCC(C)N5C24C2CCCC(OC)C2C1OC(=O)c1ccccc1` (stereo not drawn) [Himandrine], in the experiment on cats, the heart rate entry is “reduced heart rate”; the hypotension result was “marked and sustained hypotension”.

Consider `C[C@@H]1CC[C@H]2[C@H](C[C@@H]3C[C@@]2(O)C2=CC(=O)[C@H]4CCCC[C@@H]4[C@H]23)N1C` [Himbadine], for which the antispasmodic activity result in the experiment on rabbit intestine was “significant antispasmodic activity”.

As to `COC(=O)C1CC23CCCCC2C2CC(C4CCCC(C)N4)C4(C)OC23C14` (stereo not drawn) [drawing 153], on KOR [1], 5000 nM corresponded to half-maximal inhibition (IC50). Further, the Emax at KOR [2] (setting [13]) was 13%.

As to `COC(=O)C1CC23CCCCC2C2CC(C4CCCC(C)N4)C4(C)OC23C14` (stereo not drawn) [drawing 154], on KOR [9], the “Agonist Emax (% U69,593)” value was 10* % U69,593. Besides, the IC50 at KOR [1] was over 10000 nM.

Regarding `COC1CC23CCCCC2C2CC(C4CCCC(C)N4)C4(C)OC23C14` (stereo not drawn) [drawing 167], half-maximal inhibition against KOR [1] (IC50) required 6250 nM. For the same molecule, the “Agonist Emax (% U69,593)” value at KOR [2] is recorded as 10* % U69,593.

As to `COC1CC23CCCCC2C2CC(C4CCCC(C)N4)C4(C)OC23C14` (stereo not drawn) [drawing 168], at KOR [2] (setting [12]), the Emax is 17%.

For the molecule `COC(=O)C1=C2C3(O)CC4CC5C3CCC(C)N5C24C2CCC(O)C(OC)C2C1OC(=O)c1ccccc1` (stereo not drawn) [himandridine], in the experiment with mammals [10] (2.5 mg/kg), the hypotensive activity result is “moderate to marked hypotensive activity”.

Turning to `CC1CCCC(C=CC2C3CCCCC3CC3C(=O)OC(C)C32)N1` (stereo not drawn) [himbeline], the “depressant and hypotensive activity” value in the experiment on mammals [10] (no dose listed) is “weakly depressant and hypotensive”.

On to himandravine, for which, in the experiment on mammals [11], the CNS depression entry was “strong CNS depression” and the “anticonvulsant activity against electroshock seizure” value is “anticonvulsant activity”.
